Experimental data reported in publication PMC9386018, “A lymphatic-absorbed multi-targeted kinase inhibitor for myelofibrosis therapy” (Nature Communications, 2022).
Several values for one entry are separate records, joined by “and”; a condition that tells them apart may be missing. Equal values may be shown once.

Assays:
[1] = Microsomal stability; assay type: in vitro ADME; details: mouse, liver microsomes; ~1 µM, NADPH, 37 °C; read-out: t1/2 in murine liver microsomes
Method: Quantitative determination of LP-182 stability in murine liver microsomes was performed by the University of Michigan Pharmacokinetics Core. […]; in 100 mM phosphate buffer, 3 mM MgCl2) to a final concentration of […], and then reactions were sampled over 60 min. Aliquots were removed at the designated time points, quenched by addition of 4 volumes of cold acetonitrile, then centrifuged at 10,000 x g for 5 min to pellet protein precipitates. […] The natural log peak area ratio of compound to internal standard (Acmpd/AIstd) was plotted against time to determine pharmacokinetic properties of microsomal stability. All analyses, data processing, and calculations were performed and provided by the core. Data was generated from a single independent experiment.

[2] = test system: MPL^W515L mouse model of myelofibrosis; assay: MPL^W515L MF mouse model: spleen volume by MRI (Study 1); assay type: in vivo; details: MPL^W515L mice; for Spleen volume to body weight ratio (mm3/g): individual animals
Method: Generation of the MPL^W515L mutant MF mouse model was similar to previously described methods. Briefly, female donor BALB/c mice were treated with 5-fluorouracil at 150 mg kg^−1 intraperitoneal for 5 d before harvesting bone marrow. Hematopoietic stem and progenitor cells were enriched with CD117 magnetic beads (Miltenyi Biotec), transduced with retrovirus containing MSCV-hMPL W515L-IRES-GFP, then 50,000 transduced HSPCs along with 300,000 total non-stem cells were injected intravenously into lethally irradiated female BALB/c recipients. Development of MF was evaluated by spleen volumes using MRI beginning ~14 d following bone marrow transplantation (BMT) as outlined below, continuing weekly until end of the study. Mice were separated into equal groups based on spleen size ~14–21 d post-BMT, then treated with vehicle (Maisine CC) or LP-182 at 400 mg kg^−1 daily by oral gavage for 14–28 d or until mice were euthanized using guidelines for end stage illness and humane endpoints. Untreated healthy control animals were used for experimental comparisons. Tissues were harvested and processed for flow cytometry (as described above), LCMS/MS, immuno-blotting, and histological analysis (as described in Supplementary Methods) at the defined study endpoint(s), approximately 1–2 h post-treatment with vehicle or LP-182. Briefly, blood samples were collected, transferred into K2-EDTA tubes (BD Microtainer), inverted gently to mix, then centrifuged at 2000 x g for 15 min. […] Dissection and bone marrow isolation from mouse femur and tibia was performed similar to previously described methods. Briefly, the hind limbs from mice were dissected, muscle and connective tissue removed, and bones were frozen at −80 °C. Femur and tibia were thawed separately, placed knee-end down in 18 gauge needle-pierced 0.5 mL microcentrifuge tubes nested inside 1.5 or 2 mL microcentrifuge tubes containing 1.4 mm ceramic beads (Fisher Scientific), then bone marrow was isolated by centrifugation at 10,000 x g for 1 min and processed for analysis by LCMS/MS (above; femur) or immuno-blotting (tibia). […] Soluble protein extracts were isolated by centrifugation at 15,000 x g for 15 min at 4 °C, quantified using Micro BCA protein assay (Thermo Scientific), then mixed with reducing 6X SDS-PAGE loading dye, heated for 8 min at 95 °C, and stored at −20 °C until immuno-blot analysis. Whole cell lysates were resolved by 10% SDS-PAGE, transferred to PVDF (Immobilon-P; MilliporeSigma), then membranes were blocked with 5% BSA (Equitech-Bio) in TBS containing 0.1% Tween-20 (TBST) for 1 h at room temperature with gentle orbital shaking. Membranes were incubated with primary antibodies in 5% BSA/TBST overnight at 4 °C or 5% skim milk/TBST (Lab Scientific) for 1 h at room temperature, then washed with TBST, and incubated with HRP-conjugated secondary antibodies in 5% skim milk/TBST for 1.5 h at room temperature, all with gentle platform rocking. Membranes were washed with TBST, then visualized by chemiluminescence on a BioRad ChemiDoc MP Imaging System using SuperSignal West PicoPLUS or West Femto Chemiluminescent Substrate (Thermo Scientific). Membranes were stripped using Restore PLUS Western Blot Stripping Buffer (Thermo Scientific) as per manufacturer’s instructions and re-probed with additional primary antibodies as described above. […] All antibodies were used at dilutions recommended by their specified manufacturers or optimized empirically. Additional reagents were purchased from MilliporeSigma (St. Louis, MO) unless otherwise specified. Tissues for histology were formalin-fixed, paraffin-embedded, sectioned, and stained with Hematoxylin and Eosin (H&E) to assess cellularity and tissue morphology, with Reticulin Stain Kit (Connective Tissue Stain; Abcam) to assess fibrosis, or processed for immunohistochemistry staining with GFP to assess MPL^W515L-positive cellularity. […]

[3] = test system: phosphorylated ERK1/2 (pT202/pY204) in SET-2 cells; assay: Phospho-flow cytometry of pERK1/2 in SET-2 cells; assay type: cell-based, human; details: 5 μM, 16 h
Method: The human megakaryoblastic cell line, SET-2 (ATCC), was maintained in RPMI 1640 supplemented with 20% FBS and incubated for 16 h at 10^6 cells mL^−1 with LP-182 or vehicle (DMSO; dimethyl sulfoxide), then washed in ice-cold PBS, and collected for flow cytometry analysis. Single-cell suspensions of mouse spleen were prepared from MPL^W515L MF mice (below) in RPMI 1640 supplemented with 5% FCS. Red blood cells were lysed by ammonium chloride-mediated red cell lysis (RCL) buffer and passed through a nylon mesh, and then cells were counted. For intracellular phospho-protein staining, SET-2 or spleen cells were fixed and then permeabilized using BD Phospho-flow fixation buffer and Perm-Buffer III (BD biosciences) according to the manufacturer’s protocol. Intracellular phospho-protein staining was performed using fluorochrome-conjugated antibodies, pAKT (pS473)-Alexa Fluor 647 (MB89-61) or pERK1/2 (pT202/pY204)-Alexa Fluor 647 (20 A). All phospho-flow antibodies were purchased from BD Biosciences. […] Flow cytometry was performed on a FACS Fortessa (Becton, Dickinson and Co.) using FACSDiVa software, and data analyzed using FlowJo software (Tree Star). […]

[4] = test system: ERK1/2 and pERK1/2 (pT202/pY204) in bone marrow; assay: MPL^W515L MF mouse model: ERK1/2 and pERK1/2 immunoblot of bone marrow; assay type: in vivo; details: MPL^W515L mice, oral 400 mg kg^−1 daily, 28 d
Method: Generation of the MPL^W515L mutant MF mouse model was similar to previously described methods. Briefly, female donor BALB/c mice were treated with 5-fluorouracil at 150 mg kg^−1 intraperitoneal for 5 d before harvesting bone marrow. Hematopoietic stem and progenitor cells were enriched with CD117 magnetic beads (Miltenyi Biotec), transduced with retrovirus containing MSCV-hMPL W515L-IRES-GFP, then 50,000 transduced HSPCs along with 300,000 total non-stem cells were injected intravenously into lethally irradiated female BALB/c recipients. Development of MF was evaluated by spleen volumes using MRI beginning ~14 d following bone marrow transplantation (BMT) as outlined below, continuing weekly until end of the study. Mice were separated into equal groups based on spleen size ~14–21 d post-BMT, then treated with vehicle (Maisine CC) or LP-182 at 400 mg kg^−1 daily by oral gavage for 14–28 d or until mice were euthanized using guidelines for end stage illness and humane endpoints. Untreated healthy control animals were used for experimental comparisons. […] Soluble protein extracts were isolated by centrifugation at 15,000 x g for 15 min at 4 °C, quantified using Micro BCA protein assay (Thermo Scientific), then mixed with reducing 6X SDS-PAGE loading dye, heated for 8 min at 95 °C, and stored at −20 °C until immuno-blot analysis. […]

## O=C(NOCCOCCOCCOCCC(=O)N1CCN(c2cnc3ccc(-c4cnc(Cl)c(NS(=O)(=O)c5ccc(F)cc5)c4)cc3n2)CC1)c1ccc(F)c(F)c1Nc1ccc(I)cc1F [LP-182, N-(2-(2-(2-(3-(4-(7-(6-chloro-5-((4-fluorophenyl)sulfonamido)pyridin-3-yl)quinoxalin-2-yl)piperazin-1-yl)-3-oxopropoxy)ethoxy)ethoxy)ethoxy)-3,4-difluoro-2-((2-fluoro-4-iodophenyl)amino)benzamide]
[1]
  half-life: ~8 min
[2]; LP-182 group, treatment length 0 d (baseline)
  Spleen volume to body weight ratio (mm3/g): 31.0875 mm3/g and 17.4312 mm3/g and 19.0791 mm3/g and 34.919 mm3/g and 29.5281 mm3/g
[2]; LP-182 group, treatment length -7 d (before treatment)
  Spleen volume to body weight ratio (mm3/g): 15.1103 mm3/g and 6.53 mm3/g and 9.708 mm3/g and 8.386 mm3/g and 11.4368 mm3/g
[2]; oral 400 mg kg^−1 daily, after 14 d
  reduction of spleen volume compared to vehicle: ~ 35%
[2]; oral 400 mg kg^−1 daily, treatment length 7 d
  Spleen volume to body weight ratio (mm3/g): 26.2397 mm3/g and 11.9227 mm3/g and 23.2289 mm3/g and 24.8013 mm3/g and 24.121 mm3/g
[2]; oral 400 mg kg^−1 daily, treatment length 14 d
  Spleen volume to body weight ratio (mm3/g): 25.0148 mm3/g and 4.765 mm3/g and 27.3514 mm3/g and 25.4021 mm3/g and 32.6974 mm3/g
[2]; oral 400 mg kg^−1 daily, treatment length 21 d
  Spleen volume to body weight ratio (mm3/g): 28.0008 mm3/g and 4.203 mm3/g and 24.753 mm3/g and 31.0963 mm3/g and 27.5586 mm3/g
[3]
  decrease of downstream activation of ERK1/2: ~ 50%
[4]
  levels and activation of ERK1/2 in bone marrow: attenuate downstream MPL^W515L signal transduction
